Assay [1] relates to SC-β cells. The assay can be described thus: In vitro SC-β cell function screen: stimulation index of SC-β cells generated with the agent. The class given is cell-based, human. The following applies: FIG. 1A. How it is done:
Stimulation index=[insulin@20 mM glucose]/[insulin@2 mM glucose]. Relative Stim Index=Stim Index/Stim Index of Control.
FIG. 3 is a schematic illustration depicting an overview of the chemicals used and approach for the initial screen.

In a further assay the test system is beta cells. The following applies: Table 1, background knowledge on the screened compounds; cited from earlier work.
Another assay concerns the target TGFRII (Homo sapiens, UniProt P37173). The following applies: relative to TGFRI kinase (ALK5); cited from earlier work.
The test system of assay [2] is p38a, p38b, p38d, JNK1, EGFR, MAPKAPK2, MKK6, ERK2, PKC, PKA, PKD, CDC2, and CaMKII. The following applies: relative to TGFRI kinase (ALK5); cited from earlier work.
Assay [3] has as its system SC-β cells. Kind of assay: In vivo function of SC-β cells generated with the agents, after transplantation into mice. The source says: FIG. 4B is a Table quantifying the improvement in stimulation index and mean 30′ insulin post injection illustrated in FIG. 4A.
FIG. 5B is a Table quantifying the improvement in stimulation index and mean 30′ insulin post injection illustrated in FIG. 5A.

A further assay deals with AMPK. The note with it: cited from earlier work.
For another assay, the target named is T1, ALK5 (Homo sapiens, UniProt P36897).
T1 sequence (P36897 34-503): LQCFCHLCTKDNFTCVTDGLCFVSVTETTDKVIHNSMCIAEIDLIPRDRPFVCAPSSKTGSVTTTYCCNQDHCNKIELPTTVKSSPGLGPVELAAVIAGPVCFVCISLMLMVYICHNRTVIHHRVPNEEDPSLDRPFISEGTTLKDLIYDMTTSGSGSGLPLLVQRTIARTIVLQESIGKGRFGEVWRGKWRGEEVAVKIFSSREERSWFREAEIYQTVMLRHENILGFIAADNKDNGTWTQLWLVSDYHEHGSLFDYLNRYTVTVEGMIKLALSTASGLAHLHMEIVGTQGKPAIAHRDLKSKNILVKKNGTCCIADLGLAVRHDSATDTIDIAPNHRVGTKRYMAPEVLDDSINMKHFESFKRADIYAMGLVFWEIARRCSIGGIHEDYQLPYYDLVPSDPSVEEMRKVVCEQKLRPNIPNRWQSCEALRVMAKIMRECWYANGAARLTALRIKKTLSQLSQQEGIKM
The note with it: cited from earlier work.

For a further assay, the target named is KDR (VEGFR-2) (Homo sapiens, UniProt P35968). The note with it: cited from earlier work.
The target in the next assay is PDGFRβ (Homo sapiens, UniProt P09619). The following applies: cited from earlier work.
Assay [4] has as its system BMP4-induced phosphorylation of Smads 1, 5 and 8. The note with it: HEK293 cells; cited from earlier work.

Sequence of PDGFRβ (P09619 33-1106, species assumed): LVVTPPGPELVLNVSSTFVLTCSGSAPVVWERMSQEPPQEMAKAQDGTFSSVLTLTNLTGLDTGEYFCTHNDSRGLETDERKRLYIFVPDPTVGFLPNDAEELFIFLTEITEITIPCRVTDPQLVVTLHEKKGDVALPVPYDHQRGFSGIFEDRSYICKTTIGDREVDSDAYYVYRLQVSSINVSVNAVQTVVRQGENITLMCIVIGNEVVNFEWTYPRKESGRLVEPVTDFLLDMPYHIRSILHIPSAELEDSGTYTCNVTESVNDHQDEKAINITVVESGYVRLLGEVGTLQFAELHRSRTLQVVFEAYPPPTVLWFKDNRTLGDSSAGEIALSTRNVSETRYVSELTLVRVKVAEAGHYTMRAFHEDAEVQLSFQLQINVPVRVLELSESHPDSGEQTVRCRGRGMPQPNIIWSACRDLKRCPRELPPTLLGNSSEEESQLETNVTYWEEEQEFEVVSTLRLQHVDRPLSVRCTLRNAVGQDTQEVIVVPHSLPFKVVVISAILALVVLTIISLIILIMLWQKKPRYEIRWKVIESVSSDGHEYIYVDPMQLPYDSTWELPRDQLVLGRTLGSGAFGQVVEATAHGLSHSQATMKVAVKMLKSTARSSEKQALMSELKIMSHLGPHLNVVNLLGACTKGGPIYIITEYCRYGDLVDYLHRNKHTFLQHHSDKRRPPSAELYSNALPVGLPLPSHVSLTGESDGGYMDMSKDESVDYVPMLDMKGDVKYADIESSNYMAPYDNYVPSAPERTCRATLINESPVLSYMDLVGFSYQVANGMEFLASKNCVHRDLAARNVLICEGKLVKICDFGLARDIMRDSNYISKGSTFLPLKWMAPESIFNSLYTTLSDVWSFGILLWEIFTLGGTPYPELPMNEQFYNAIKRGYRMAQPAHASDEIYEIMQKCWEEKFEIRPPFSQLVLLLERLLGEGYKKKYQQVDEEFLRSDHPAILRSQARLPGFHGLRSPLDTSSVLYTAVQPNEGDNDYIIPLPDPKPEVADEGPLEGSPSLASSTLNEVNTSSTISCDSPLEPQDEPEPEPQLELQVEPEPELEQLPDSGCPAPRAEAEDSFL
Sequence of TGFRII (P37173 23-567): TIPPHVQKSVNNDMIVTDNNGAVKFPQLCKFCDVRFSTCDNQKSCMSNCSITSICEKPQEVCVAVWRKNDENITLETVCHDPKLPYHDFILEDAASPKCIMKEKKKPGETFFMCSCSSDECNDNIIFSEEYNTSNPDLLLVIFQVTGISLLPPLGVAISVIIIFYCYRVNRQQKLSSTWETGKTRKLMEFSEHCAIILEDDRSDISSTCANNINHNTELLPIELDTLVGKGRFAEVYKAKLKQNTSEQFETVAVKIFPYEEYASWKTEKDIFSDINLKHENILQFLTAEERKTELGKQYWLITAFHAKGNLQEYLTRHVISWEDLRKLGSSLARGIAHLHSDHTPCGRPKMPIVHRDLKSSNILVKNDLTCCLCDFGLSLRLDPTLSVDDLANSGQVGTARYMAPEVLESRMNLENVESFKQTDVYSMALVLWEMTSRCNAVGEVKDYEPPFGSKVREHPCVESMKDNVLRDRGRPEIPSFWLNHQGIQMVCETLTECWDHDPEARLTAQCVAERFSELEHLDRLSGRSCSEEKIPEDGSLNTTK
Sequence of KDR (VEGFR-2) (P35968 20-1356, species assumed): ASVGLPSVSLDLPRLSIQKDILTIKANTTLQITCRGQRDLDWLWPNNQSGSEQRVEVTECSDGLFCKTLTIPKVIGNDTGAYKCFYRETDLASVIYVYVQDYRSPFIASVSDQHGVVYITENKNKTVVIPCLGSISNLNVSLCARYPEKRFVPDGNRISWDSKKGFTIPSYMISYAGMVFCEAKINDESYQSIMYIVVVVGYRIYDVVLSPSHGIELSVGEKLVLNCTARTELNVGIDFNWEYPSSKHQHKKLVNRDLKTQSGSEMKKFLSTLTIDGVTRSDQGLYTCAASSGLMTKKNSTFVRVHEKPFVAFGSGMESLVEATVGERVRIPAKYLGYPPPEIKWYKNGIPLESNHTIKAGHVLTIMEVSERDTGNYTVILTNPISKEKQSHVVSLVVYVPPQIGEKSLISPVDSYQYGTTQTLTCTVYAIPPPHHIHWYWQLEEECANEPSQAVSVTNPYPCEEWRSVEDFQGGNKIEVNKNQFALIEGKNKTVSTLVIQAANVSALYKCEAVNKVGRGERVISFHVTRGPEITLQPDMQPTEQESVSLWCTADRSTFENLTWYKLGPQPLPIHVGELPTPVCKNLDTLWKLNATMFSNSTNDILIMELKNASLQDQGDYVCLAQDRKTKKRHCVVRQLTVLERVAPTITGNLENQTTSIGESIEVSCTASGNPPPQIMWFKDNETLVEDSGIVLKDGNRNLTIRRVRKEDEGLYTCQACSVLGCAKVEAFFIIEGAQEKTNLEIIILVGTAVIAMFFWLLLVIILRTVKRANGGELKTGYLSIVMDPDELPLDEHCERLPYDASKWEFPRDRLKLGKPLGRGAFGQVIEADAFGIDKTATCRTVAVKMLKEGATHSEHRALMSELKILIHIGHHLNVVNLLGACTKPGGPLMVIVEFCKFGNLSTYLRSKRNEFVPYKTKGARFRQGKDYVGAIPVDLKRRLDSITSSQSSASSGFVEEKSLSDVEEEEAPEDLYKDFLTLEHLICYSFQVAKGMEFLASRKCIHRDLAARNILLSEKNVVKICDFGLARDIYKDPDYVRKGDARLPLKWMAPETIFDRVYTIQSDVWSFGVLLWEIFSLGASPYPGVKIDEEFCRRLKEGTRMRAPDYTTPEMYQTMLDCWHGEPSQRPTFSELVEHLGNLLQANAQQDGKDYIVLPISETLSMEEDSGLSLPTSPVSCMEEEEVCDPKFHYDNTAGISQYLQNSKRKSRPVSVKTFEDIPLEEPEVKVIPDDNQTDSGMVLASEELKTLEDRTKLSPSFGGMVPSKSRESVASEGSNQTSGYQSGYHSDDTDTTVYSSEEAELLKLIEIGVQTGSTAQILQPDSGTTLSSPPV

`C[S+]([O-])c1ccc(-c2nc(-c3ccc(F)cc3)c(-c3ccncc3)[nH]2)cc1` (stereo not drawn) [SB203580]: the “Stimulation index of resulting SC-β cells relative to control SC-β cells” value with SC-β cells [1] (concentration not given) was “worse stimulation indices”. The “Effect on Beta Cells” value in the assay with beta cells is “Reduced apoptosis in beta cells”.

Regarding `NC(=O)c1ccc(-c2nc(-c3ccc4c(c3)OCO4)c(-c3ccccn3)[nH]2)cc1` [SB431542, 4-[4-(1,3-benzodioxol-5-yl)-5-(2-pyridinyl)-111-imidazol-2-yl]benzamide], the “Effect on Beta Cells” value in the assay on beta cells is listed as “Reduces apoptosis of pancreatic beta cells, increases insulin”.

As to `Cc1cccc(-c2nn(C(=S)Nc3ccccc3)cc2-c2ccnc3ccccc23)n1` [A83-01], the “Stimulation index of resulting SC-β cells relative to control SC-β cells” value in the assay on SC-β cells [1] (concentration not given) was “worse stimulation indices”. Also, in the assay on beta cells, the “Effect on Beta Cells” value was “Reduces apoptosis of pancreatic beta cells, increases insulin”.

`N#CC(=C(/N)Sc1ccccc1N)/C(C#N)=C(\N)Sc1ccccc1N` [U0126]: in the assay on SC-β cells [1] (concentration not given), the “Stimulation index of resulting SC-β cells relative to control SC-β cells” value is recorded as “worse stimulation indices”. In the assay with beta cells, the “Effect on Beta Cells” value is on record as “Reduced apoptosis in beta cells”.

For `Fc1ccc(Cl)cc1-c1nc(Nc2ccncc2)c2nccnc2n1` [SD208], the “Effect on Beta Cells” value in the assay with beta cells is listed as “Helps maintain growth of human pancreatic cancer cells”. Also, the “Specificity against TGFRII” value on TGFRII was more than 100 fold. The “Specificity over members of a panel of related protein kinases” value in [2] is listed as “at least 17 fold”.

Turning to `CC(C)Oc1ccc(-c2cnc3c(-c4ccnc5ccccc45)cnn3c2)cc1` [DMH-1, 4-[6-[4-(1-Methylethoxy)phenyl]pyrazolo[1,5-a]pyrimidin-3-yl]-quinoline], the “Stimulation index of resulting SC-β cells relative to control SC-β cells” value in the assay on SC-β cells [1] (agent 1 μM, Stimulation index=[insulin@20 mM glucose]/[insulin@2 mM glucose]) was “greater stimulation index”. Besides, the “In vivo function of SC-β cells generated using the agent(s)” value with SC-β cells [3] (2 weeks post-transplantation into mice, FIG. 4A) is on record as “improved in vivo function”; with SC-β cells [3] (4 weeks post-transplantation into mice, FIG. 5A), “improved in vivo function”. In addition, the “Effect on Beta Cells” value in the assay on beta cells was “Aids differentiation of zebrafish beta cells”. The “Inhibition of AMPK” value with AMPK is on record as “no detectable inhibition”. In addition, at ALK5, the “Inhibition of ALK5” value was “no detectable inhibition”. For the same compound, the “Inhibition of KDR (VEGFR-2)” value at KDR (VEGFR-2) is “no detectable inhibition”. The “Inhibition of PDGFRβ receptors” value at PDGFRβ is on record as “no detectable inhibition”. Further, in assay [4], the “Effect on BMP4-induced phosphorylation of Smads 1, 5 and 8” value is “block BMP4-induced phosphorylation of Smads 1, 5 and 8”.

Take `Oc1ccc(-c2nc(-c3ccc(F)cc3)c(-c3ccncc3)[nH]2)cc1` [SB202190]: the “Stimulation index of resulting SC-β cells relative to control SC-β cells” value in the assay with SC-β cells [1] (concentration not given) is recorded as “worse stimulation indices”. In addition, the “Effect on Beta Cells” value in the assay with beta cells is recorded as “Reduced apoptosis in beta cells”.
